Source: PMC7024391, “Trypanocidal Activity of Flavanone Derivatives” (Molecules, 2020)
Where two headings read alike, the source gives them in different places.

Tests used:
[1] = system: trypomastigote form of T. cruzi; design: method as in Ambrozin et al.; conditions: ref Ambrozin et al.; cited from earlier work
[2] = system: T. cruzi (Trypomastigote); design: method as in Grecco et al. [9],[10],[11],[12]; conditions: ref Grecco et al. [9],[10],[11],[12]; cited from earlier work
[3] = system: T. cruzi (Trypomastigote); design: method as in Ganapaty et al. [8]; conditions: ref Ganapaty et al. [8]; cited from earlier work
[4] = system: Trypanosoma cruzi (amastigotes and trypomastigotes), Tulahuen strain; assay: Anti-Trypanosoma cruzi activity assay (amastigotes and trypomastigotes) in infected L929 cells, beta-galactosidase reporter; assay type: cell-based; conditions: Trypanosoma cruzi, 96 h incubation, ± 0.2, read-out: Trypanocide IC50(μM) ± 0.2
Description: Flavanone derivatives were evaluated for anti-T. cruzi activity against the intracellular forms of the parasite. Although the use of epimastigotes present in the midgut vector may be utilized for initial screening, we have instead opted for the simultaneous use of trypomastigote and intracellular amastigotes forms that are present during both acute and chronic phases of the disease. This approach is in accordance with the Drugs for Neglected Diseases Initiative guidelines (DNDi). Moreover, it also has the advantage of evaluating bioactive compounds in infected cells while at the same time monitoring their effects on both the relevant forms of the parasite in the same system. Benznidazole was used as a positive control against T. cruzi and cytotoxicity was determined in mammalian L929 cells (Table 1). The bioavailability profile of the flavanones was evaluated by applying the Lipinski rule and data related to the risk of toxicity (mutagenicity, tumorigenicity, irritability, and effects on the reproductive system) carried out through online programs “Molinspiration” and “OSIRIS property explorer” (Table 1). […] Nevertheless, this preliminary result motivated us to investigate other analogs bearing substituents in order to improve potency and selectivity. […] Moreover, the selectivity of 2d was almost 4 times greater than 2a. The importance of methoxy substituents for trypanocidal activity has been noted in other studies. […] These compounds resembled more closely the chemical structure of the trypanocidal natural product (brevifolin carboxylate) that these structures were based on. Some enhancement in the trypanocidal activity of hybrid coumarin-chalcone compounds was also noted when the methoxy groups were introduced into either the 2 or 5 positions of the benzene ring. The inclusion of a pyridine moiety in compound 2e was supported by previous reports describing the anti-T. cruzi activity of 2-pyridyl derivatives and their capacity to inhibit cruzain catalytic activity. […] No improvements in anti-T. cruzi activity were also observed for flavanones substituted at the benzoyl moiety (2g–2o and 2v–2x). […] The physicochemical drug descriptors of the molecular properties for the synthesized compounds were calculated by Molinspiration software (Table 1). The majority of the tested compounds satisfy the Lipinski rule with no violations and therefore displaying potentially good bioavailability. There were no linear correlations observed between molecular hydrophobicity and bioactivity.
The in vitro anti-T. cruzi activity was evaluated on L929 cells (mouse fibroblasts) infected with Tulahuen strain of the parasite expressing the Escherichia coli β-galactosidase as reporter gene. Briefly, for the bioassay, 4000 L929 cells were added to each well of a 96-well microtiter plate. After an overnight incubation, 40,000 trypomastigotes were added to the cells and incubated for 2 h. Then, the medium containing extracellular parasites were replaced with 200 μL of fresh medium and the plate was incubated for an additional 48 h to establish the infection. For IC50 determination, the cells were exposed to each synthesized compound at serial decreasing dilutions and the plate was incubated for 96 h. After this period, 50 μL of 500 μM chlorophenol red beta-D-galactopyranoside (CPRG) in 0.5% Nonidet P40 was added to each well, and the plate was incubated for 16–20 h, after which the absorbance at 570 nm was measured. Controls with uninfected cells, untreated infected cells, infected cells treated with Benznidazole at 3.8 μM (positive control) or DMSO 1% were used. The results were expressed as the percentage of T. cruzi growth inhibition in compound-tested cells as compared to the infected cells and untreated cells. The IC50 values were calculated by linear interpolation. Quadruplicates were run in the same plate, and the experiments were repeated at least once.

[5] = In vitro cytotoxic test on uninfected L-929 cells (alamarBlue); assay type: cell-based, mouse; conditions: mouse, uninfected L-929 cells; mammalian L929 cells, 96 h, alamarBlue; ± 2.0; read-out: Cytotoxicity CC50(μM) ± 2.0
Description: (§1) The active compounds were tested in vitro for determination of cellular toxicity against uninfected L-929 cells using the alamarBlue® dye. The cells were exposed to compounds at increasing concentrations starting at IC50 value for T. cruzi. After 96 h of incubation with the tested compounds, the alamarBlue® was added and the absorbance at 570 and 600 nm measured after 4–6 h. The cell viability was expressed as the percentage of difference in the reduction between treated and untreated cells. IC50 values were calculated by linear interpolation, and the selectivity index (SI) was determined based on the ratio of the IC50 value in the host cell divided by the IC50 value of the parasite. Quadruplicates were run in the same plate, and the experiments were repeated at least once.

L929 cells = assay: as above; assay type: cell-based, mouse; conditions: CC50 L929 / IC50 T. cruzi
Description: as §1

COc1ccc2c(=O)cc(-c3ccccc3)oc2c1 [7-Methoxyflavone]
IC50 [1]: 3120 µM

COc1ccc(-c2cc(=O)c3c(O)c(OC)c(O)cc3o2)cc1 [Pectolinaringenin]
IC50 [2]: 164 µM

O=c1cc(-c2ccccc2)oc2ccccc12 [Flavone]
IC50 [1]: 9520 µM

COc1cc2c(cc1O)OC[C@H](c1cc3c(cc1O)OCO3)[C@H]2O [Pumilanol]
IC50 [3]: 10.1 µM

COc1ccc([C@@H]2Oc3ccc(Cl)cc3C(=O)[C@H]2C(=O)c2ccccc2)cc1 (relative stereo) [Compound 2u, trans-3-benzoyl-6-chloro-2-(4-methoxyphenyl)chroman-4-one]
IC50 [4]: 59.2 µM
CC50 at 96 h [5]: 205 µM
SI (selectivity index calculated from CC50/IC50) (L929 cells): 3.5

COc1cc(O)c2c(c1)O[C@H](c1ccc(O)cc1)CC2=O [Sakuranetin]
IC50 [2]: 70.5 µM

COc1ccc2c(c1)C(=O)[C@@H](C(=O)c1ccccc1)[C@H](c1ccc(F)cc1)O2 (relative stereo) [Compound 2r, trans-3-benzoyl-2-(4-fluorophenyl)-6-methoxychroman-4-one]
IC50 [4]: 17.6 µM
CC50 at 96 h [5]: 106 µM
SI (selectivity index calculated from CC50/IC50) (L929 cells): 6.1

COc1c(O)cc2oc(-c3ccc(O)cc3)cc(=O)c2c1O [Hispidulin]
IC50 [2]: 268 µM

Cc1ccc(C(=O)[C@@H]2C(=O)c3ccccc3O[C@H]2c2ccccc2Cl)cc1 (relative stereo) [Compound 2j, trans-2-(2-chlorophenyl)-3-(4-methylbenzoyl)chroman-4-one]
IC50 [4]: 63 µM
CC50 at 96 h [5]: 62.5 µM
SI (selectivity index calculated from CC50/IC50) (L929 cells): 1

O=C(c1ccccc1)[C@@H]1C(=O)c2cc(Cl)ccc2O[C@H]1c1ccccc1 (relative stereo) [Compound 2t, trans-3-benzoyl-6-chloro-2-phenylchroman-4-one]
IC50 [4]: 23.2 µM
CC50 at 96 h [5]: 221 µM
SI (selectivity index calculated from CC50/IC50) (L929 cells): 9.5
